Test results reported in patent US8609669B2, “Potassium channel modulators” (AbbVie Inc., priority 2010, dated 2013).

What was measured:
[1] = system: CCI-induced mechanical allodynia; test: Chronic constriction injury (CCI) model of neuropathic pain (Bennett model); format: in vivo, Sprague-Dawley rats; settings: rat CCI, about 30 mg/kg i.p., 30 minutes or more before testing
Text: (§1) Adult male Sprague-Dawley rats (250-300 g body weight, Charles River Laboratories, Portage, Mich.) were used. Animal handling and experimental protocols were approved by the Institutional Animal Care and Use Committee (IACUC) at Abbott Laboratories. For all surgical procedures, animals were maintained under isoflurane anesthesia (4-5% to induce, 1-3% to maintain), and the incision sites were sterilized using a 10% povidone-iodine solution prior to and after surgeries.
(§2) Tactile (mechanical) allodynia was measured using calibrated von Frey filaments (Stoelting, Wood Dale, Ill.) as described in Chaplan, S. R., F. W. Bach, J. M. Pogrel, J. M. Chung and T. L. Yaksh, 1994, Quantitative assessment of tactile allodynia in the rat paw, J. Neurosci. Methods, 53, 55. Rats were placed into inverted individual plastic containers (20×12.5×20 cm) on top of a suspended wire mesh grid, and acclimated to the test chambers for 20 minutes. The von Frey filaments were presented perpendicularly to the plantar surface of the selected hind paw, and then held in this position for approximately 8 seconds with enough force to cause a slight bend in the filament. Positive responses include an abrupt withdrawal of the hind paw from the stimulus, or flinching behavior immediately following removal of the stimulus.
A model of chronic constriction injury-induced (CCI) neuropathic pain was produced by following the method of Bennett and Xie (1988, Pain, 33, 87-107). The right common sciatic nerve was isolated at mid-thigh level, and loosely ligated by 4 chromic gut (5-0) ties separated by an interval of 1 mm. Sham rats can underwent the same procedure, but without sciatic nerve constriction. All animals can be left to recover for at least 2 weeks and no more than 5 weeks prior to testing of mechanical allodynia. Compounds were injected (i.p.) 30 minutes or more before testing.

[2] = molecular target: T1, KCNQ 2/3 channels (HEK293 cells stably expressing human KCNQ2 and KCNQ3 subunits) (Homo sapiens, UniProt O43525+O43526); test: KCNQ2/3 channel activation, thallium flux FLIPR assay (BTC-AM dye); format: cell-based; settings: for Emax: HEK293, maximum response relative to response of retigabine at 10 μM (set at 100%), read-out: Max. %; for EC50: HEK293 cells expressing human KCNQ2 and KCNQ3, FLIPR thallium flux
T1 construct: expressed in transfected cells; host or cells: HEK293
In short: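 HEK293 cells stably expressing human KCNQ2/KCNQ3 were loaded with BTC-AM and exposed to compound for 4 min in pH 7.3 gluconate buffer with ouabain. Thallium flux was triggered with 6 mM TlNO3 and 10 mM K2SO4 (stock additions) and fluorescence (ex 488, em 540 nm) recorded for 3 min. EC50 came from responses over baseline; maximal response is relative to 10 μM retigabine (100%).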

[3] = system: SNL-induced tactile allodynia; test: Spinal nerve ligation (SNL) model of neuropathic pain; format: in vivo, Sprague-Dawley rats; settings: rat SNL, about 30 mg/kg i.p., 30 minutes or more before testing
Text: as §1
as §2, with “stimulus. […]” for “stimulus.”

[4] = system: Capsaicin-induced secondary mechanical hyperalgesia / tactile allodynia; test: Capsaicin-induced secondary mechanical hypersensitivity; format: in vivo, Sprague-Dawley rats; settings: rat, about 30 mg/kg i.p., 30 minutes before testing, von Frey
Text: as §1
Rats were allowed to acclimate to the study room for 1 hour. They were then briefly restrained, and capsaicin was administered at 10 μg in 10 μL of vehicle (10% ethanol and 2-hydroxypropyl cyclodextrin) by intraplantar injection into the center of the right hind paw. Secondary mechanical hyperalgesia was measured at the heel away from the site of injection at 180 minutes following capsaicin (Joshi et al., 2006, Neuroscience 143, 587-596). Compounds were injected (i.p.) 30 minutes before testing (150 minutes post-capsaicin).
Tactile (mechanical) allodynia was measured using calibrated von Frey filaments (Stoelting, Wood Dale, Ill.) as described in Chaplan, S. R., F. W. Bach, J. M. Pogrel, J. M. Chung and T. L. Yaksh, 1994, Quantitative assessment of tactile allodynia in the rat paw, J. Neurosci. Methods, 53, 55. […]
Tactile allodynia was measured as described above.

| Emax [2] | EC50 [2] | Compound | change in paw withdrawal latency versus vehicle [1] | change in paw withdrawal latency versus vehicle [3] | change in paw withdrawal latency versus vehicle [4] |
| --- | --- | --- | --- | --- | --- |
| 119% | 500 to 1000 nM | Cc1ccnc2c(-c3ccc(OC(F)(F)F)cc3)c(NC(=O)Cc3ccc(F)cc3)nn12 [Example 9, 2-(4-fluorophenyl)-N-{7-methyl-3-[4-(trifluoromethoxy)phenyl]pyrazolo[1,5-a]pyrimidin-2-yl}acetamide] | statistically significant change | statistically significant change |  |
| 150% | 100 to 500 nM | O=C(CCC1CCCC1)Nc1nn2cccnc2c1-c1ccc(Cl)cc1 [Example 7, N-[3-(4-chlorophenyl)pyrazolo[1,5-a]pyrimidin-2-yl]-3-cyclopentylpropanamide] |  | statistically significant change |  |
| 116% | < 100 nM | Cc1cnc2c(-c3ccc(F)c(C)c3)c(NC(=O)CCC3CCCCC3)nn2c1 [Example 35, 3-cyclohexyl-N-[3-(4-fluoro-3-methylphenyl)-6-methylpyrazolo[1,5-a]pyrimidin-2-yl]propanamide] | statistically significant change |  |  |
|  |  | CC(C)(C)CC(=O)Nc1nn2cccnc2c1-c1ccc(OC(F)(F)F)cc1 [Example 1, 3,3-dimethyl-N-(3-(4-(trifluoromethoxy)phenyl)pyrazolo[1,5-a]pyrimidin-2-yl)butanamide] | statistically significant change |  | statistically significant change |
| 99% | < 100 nM | O=C(CCC1CCCCC1)Nc1nn2cccnc2c1-c1ccc(Cl)cc1 [Example 157, N-[3-(4-chlorophenyl)pyrazolo[1,5-a]pyrimidin-2-yl]-3-cyclohexylpropanamide] |  |  |  |
